{"source": "paper PMC5790467", "about": "“Enhanced anti-tumor efficacy and mechanisms associated with docetaxel-piperine combination- in vitro and in vivo investigation using a taxane-resistant prostate cancer model” (Oncotarget, 2017)", "key": {"[1]": {"assay": "Body weight and tolerability in mice with TxR tumor xenografts", "experimental": "For oral administration of PIP, in 1 ml of PIP dosing solution, 100 µl of its stock solution was solubilized with 500 µl of PEG 400 and 400 µl of physiological saline and the mixture was administrated orally to mice at the dose of 0.1 ml/10 g body weight. […] On Day 0, mice with PC3 cell xenografts were divided into two groups and mice with PC3-TxR cell xenografts were divided into four groups. Mice in each group were treated according to Supplementary Table 3 and the drug dosing lasted for 2 weeks with body weight and tumor sized measured twice per week. […] At the end of experiment, the mice were anesthetized followed by haemospasia to death by cardiac puncture."}, "[2]": {"system": "CYPs (hepatic metabolism of DTX)", "assay": "In vitro inhibition of hepatic metabolism of DTX in mouse liver microsomes", "assay_type": "in vitro ADME, ICR mice", "details": "ICR, pH 7.4, probe DTX (docetaxel) 2 μM", "experimental": "Livers of ICR-NOD/SCID mice administrated with vehicle control or PIP were collected for the ex vivo metabolism study. In vitro metabolic reactions were performed in blank ICR mice liver. Hepatic microsomes were prepared according to the method of Hill. The system of enzymatic incubation was conducted based on the condition reported by Mooiman et al. with minor modification. […] Drug mixture was pre-incubated with mice liver microsome at 0.5 mg/ml in 50 mM phosphate buffer (pH7.4) containing 2.6 mM of NADP^+, 7.1 mM of glucose-6-phosphate and 6.5 mM of magnesium chloride for 15 min. The reaction was initiated by the addition of glucose-6-phosphate dehydrogenase at 0.8 U/ml. After incubation for 60 min, the reaction was terminated by the addition of 200 µl of ice-cold acetonitrile/methanol (50:50, v/v) containing glibenclamide at 100 ng/ml. The mixture was centrifuged at 13000 rpm for 10 min and the supernatant was injected into LC/MS/MS for analysis."}, "[3]": {"system": "PC3-TxR cells", "assay": "Microarray gene expression profiling of PC3-TxR cells treated with PIP", "assay_type": "cell-based, human", "details": "6 h", "experimental": "The microarray technique was utilized to identify the potential mechanisms related to the chemosensitizing effect of PIP in PC3-TxR cells by determining the gene expression profile at the whole genome level. PC3-TxR cells were seeded at a density of 1 × 10^5 cells/ml in DMEM supplemented with 10% fetal bovine serum and cultured for 24 h. The cells were then treated with PIP at concentrations of 25 and 50 μg/ml (as low and high concentrations respectively) for 6 h. PIP was initially dissolved in DMSO and diluted to the target concentrations using DMEM. DMSO (0.5%) was used as the negative control (n = 2). Total RNA was extracted using RNeasy Mini Kit (QIAGEN, Valencia, CA, USA) according to the manufacturer’s protocol. The RNA was measured and the quality was checked using the RNA 6000 LabChip and Agilent 2100 BioAnalyzer. Only the high-quality RNA samples (e.g. RNA integrity number greater than 9.0) were used for subsequent microarray procedure performed at the Functional Genomics Core, Beckman Research Institute, City of Hope Comprehensive Cancer Center. Affymetrix Human Genome U133 Plus 2.0 arrays (Santa Clara, CA, USA) containing 54,675 probe sets detecting over 47,000 transcripts were used. The RNA samples were randomized and blinded prior to the microarray processing/analysis. The cRNA synthesis and labeling were carried out following the Affymetrix GeneChip 3′ IVT Express standard preparation protocol using […] of total RNA from each sample, along with polyA spike-in controls. The cRNA samples were converted to double-stranded cDNA. After second-strand synthesis, the cDNA was purified with the GeneChip sample cleanup module (Affymetrix, Santa Clara, CA). Biotinylated cRNAs were then synthesized by in vitro transcription. For each sample, […] of biotinylated cRNA along with hybridization spiked controls (bioB, bioC, bioD, and cre) was hybridized with Affymetrix Human Genome U133 Plus 2.0 array for 16 h at 45°C. Following hybridization, arrays were washed, stained, and then scanned with an Affymetrix GeneChipH 3000 7G scanner.\nStatistical testing and additional analysis of the microarray data were conducted using Partek “Gene Expression” Workflow, i.e., Filtering, PCA, Sample Histogram, QC metrics, Gene Clustering, and ANOVA Analysis). The probe-set level expression data were summarized with Robust Multichip Average (RMA) by taking all 8 microarrays together. PCA and hierarchical clustering analysis (HCA) combined with heatmap was used to assess the quality of the microarray data by evaluating the reproducibility and variation of three replicates within each group and the differences among the three groups. The log2-transformed expression intensities of 54,675 probe sets from the 8 microarrays were used to calculate the Pearson Correlation Coefficient and Ward’s Minimum Variance method was used to calculate the distance between samples.\nThe differentially expressed genes (DEGs) between the treatment and control group were identified using cutoffs of t-test p value < 0.05 and fold change >2. The DEGs and probe sets were selected separately by comparing each treatment group with the control group. The dose dependent DEGs were than selected by overlapping the two DEGs sets. A functional annotation of these genes was carried out, using a gene ontology-based analysis of biological properties."}, "[4]": {"system": "Caco-2 monolayer model", "design": "method as in PMID 12130727", "details": "cited from earlier work"}, "[5]": {"system": "MCF-7/DOX", "design": "method as in PMID 21802927", "details": "PIP at 50 μM; cited from earlier work"}, "[6]": {"system": "A-549/DDP", "design": "method as in PMID 21802927", "details": "PIP at 50 μM; cited from earlier work"}, "[7]": {"details": "i.g.; female Fischer rats; cited from earlier work"}}, "note": "Read-outs that look alike come from different tables or passages of the source.", "data": [{"smiles": "O=C(/C=C/C=C/c1ccc2c(c1)OCO2)N1CCCCC1", "note": "[PIP, 1-piperoyl piperidine]", "values": [{"measurement": "response of mice to PIP at higher dose", "setting": "[1]; PIP at 100 mg/kg, mice implanted with taxane-resistant prostate cancer", "value": "severe excitation responses"}, {"measurement": "percentage of bodyweights", "setting": "[1]; TxR tumor xenograft mice, two weeks of treatment, control 96%", "value": 98, "unit": "%"}, {"measurement": "IC50 at 60 min", "setting": "[2]", "value": 37.3, "unit": "µM"}, {"measurement": "expression change of Angiopoietin-like 4", "setting": "[3]; High dose PIP", "value": 1.6}, {"measurement": "expression change of CYP1B1", "setting": "[3]; High dose PIP", "value": "−4.3"}, {"measurement": "expression change of Fatty acid binding protein 4, adipocyte", "setting": "[3]; High dose PIP", "value": 1.9}, {"measurement": "expression change of Keratin associated protein 2–3", "setting": "[3]; High dose PIP", "value": "−4.7"}, {"measurement": "expression change of Keratin associated protein 3–1", "setting": "[3]; High dose PIP", "value": "−2.7"}, {"measurement": "expression change of Metastasis associated lung adenocarcinoma transcript 1 (non-protein coding)", "setting": "[3]; High dose PIP", "value": 4.1}, {"measurement": "expression change of O-linked N-acetylglucosamine (GlcNAc) transferase", "setting": "[3]; High dose PIP", "value": 2.3}, {"measurement": "expression change of Sodium channel, non-voltage-gated 1, gamma subunit", "setting": "[3]; High dose PIP", "value": 1.5}, {"measurement": "expression change of TCDD-inducible poly(ADP-ribose) polymerase", "setting": "[3]; High dose PIP", "value": "−2.6"}, {"measurement": "expression change of Thrombospondin 1", "setting": "[3]; High dose PIP", "value": "−2.4"}, {"measurement": "expression change of Angiopoietin-like 4", "setting": "[3]; Low dose PIP", "value": 2.3}, {"measurement": "expression change of CYP1B1", "setting": "[3]; Low dose PIP", "value": "−5.1"}, {"measurement": "expression change of Fatty acid binding protein 4, adipocyte", "setting": "[3]; Low dose PIP", "value": 2.5}, {"measurement": "expression change of Keratin associated protein 2–3", "setting": "[3]; Low dose PIP", "value": "−3.3"}, {"measurement": "expression change of Keratin associated protein 3–1", "setting": "[3]; Low dose PIP", "value": "−2.0"}, {"measurement": "expression change of Metastasis associated lung adenocarcinoma transcript 1 (non-protein coding)", "setting": "[3]; Low dose PIP", "value": 3.0}, {"measurement": "expression change of O-linked N-acetylglucosamine (GlcNAc) transferase", "setting": "[3]; Low dose PIP", "value": 2.0}, {"measurement": "expression change of Sodium channel, non-voltage-gated 1, gamma subunit", "setting": "[3]; Low dose PIP", "value": 2.5}, {"measurement": "expression change of TCDD-inducible poly(ADP-ribose) polymerase", "setting": "[3]; Low dose PIP", "value": "−2.8"}, {"measurement": "expression change of Thrombospondin 1", "setting": "[3]; Low dose PIP", "value": "−2.2"}, {"measurement": "IC50", "setting": "[4]; read-out: IC50 of inhibition of the transport of cyclosporine A", "value": 74.1, "unit": "µM"}, {"measurement": "IC50", "setting": "[4]; read-out: IC50 of inhibition of the transport of digoxin", "value": 15.5, "unit": "µM"}, {"measurement": "enhancement of the sensitivity to doxorubicin", "setting": "[5]", "value": 32, "unit": "folds"}, {"measurement": "enhancement of the sensitivity to doxorubicin", "setting": "[6]", "value": 14, "unit": "folds"}, {"measurement": "LD50", "setting": "[7]", "value": 514, "unit": "mg/kg"}]}]}
